Here are results for 34 compounds from patent US20260216294A1, “BETA 2-ADRENERGIC RECEPTOR AGONISTS FOR TREATMENT OR PREVENTION OF MUSCLE WASTING” (ATROGI AB, priority 2023, published 2026).

The test system of experiment [1] is L6-myotubes. Briefly: Glucose uptake in differentiated L6-myotubes (Biological Example 2). Format: cell-based. As to conditions: glucose uptake in differentiated L6-myotubes, compound at 10 μM, activity relative to isoproterenol at 10 μM; for Emax at 10 µM: read-out: Biological example 2 (GU). In outline: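 Differentiated L6 myotubes were serum-starved overnight in 0.5% fatty-acid-free BSA and then stimulated with compound or isoprenaline at 1×10^−5 M final. After 1 h 40 min cells were washed and re-dosed in glucose-free medium. Twenty minutes later, uptake of 50 nM ^3H-2-deoxyglucose over 10 min was measured by scintillation counting of NaOH lysates.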

Experiment [2] concerns L6-myotubes. Kind of experiment: Measurement of intracellular cAMP levels in differentiated L6-myotubes (Biological Example 3). The format is cell-based. Conditions: intracellular cAMP in differentiated L6-myotubes, compound at 10 μM, activity relative to isoproterenol at 10 μM; for Emax at 10 µM: 0.25 h. In outline:
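Serum-starved differentiated L6 myotubes stimulated 15 min with test compound at 1×10^−5 M final (isoprenaline as reference) in HBSS with 1% BSA, 5 mM HEPES, 1 mM IBMX, pH 7.4. Cells EtOH-extracted, lysed, and intracellular cAMP measured by AlphaScreen.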
(cAMP levels reflect the balance of adenylyl cyclase and phosphodiesterase activity.)

Where only a bound is given, the exact number is not on record here.

In the case of `CC(=O)N[C@H]1CC[C@@H](CC(C)(C)NC[C@H](O)c2cccnc2C)CC1` [Compound 436], the Emax at 10 µM in experiment [1] is 50 to 75%; in experiment [2], below 25%.

On to `Cc1ncccc1[C@@H](O)CNC(C)(C)C[C@H]1CC[C@@H](NS(C)(=O)=O)CC1` [Compound 437, (R)-2-{1,1-dimethyl-2-[(1s,4S)-4-(mesylamino)cyclohexyl]ethylamino}-1-(2-methyl-3-pyridyl)-1-ethanol], for which the Emax at 10 µM was 25 to 50% in experiment [1] and below 25% in experiment [2].

With `O[C@@H](c1cccc(F)c1)C12CCC(COCc3ccc(F)cc3)(CC1)N2` [Compound 438, (S)-(m-fluorophenyl)(4-{[(p-fluorophenyl)methoxy]methyl}-7-azabicyclo[[2.2.1]]hept-1-yl)methanol], the Emax at 10 µM in experiment [1] and in experiment [2] was below 25% throughout.

As for `O[C@H](c1cccc(F)c1)C12CCC(COCc3ccc(F)cc3)(CC1)N2` [Compound 439, (R)-(m-fluorophenyl)(4-{[(p-fluorophenyl)methoxy]methyl}-7-azabicyclo[[2.2.1]]hept-1-yl)methanol], the Emax at 10 µM was above 75% in experiment [1] and 25 to 50% in experiment [2].

For `O[C@@H](c1cccc(F)c1)C12CCC(COc3ccc(Cl)cc3)(CC1)N2` [Compound 440], the values for the Emax at 10 µM in experiment [1] and in experiment [2] were above 75% and below 25%, respectively.

`O[C@H](c1cccc(F)c1)C12CCC(COc3ccc(Cl)cc3)(CC1)N2` [Compound 441, (R)-{4-[(p-chlorophenoxy)methyl]-7-azabicyclo[[2.2.1]]hept-1-yl}(m-fluorophenyl)methanol]: the Emax at 10 µM in experiment [1] was above 75%; in experiment [2], below 25%.

Regarding `O[C@@H](c1cncc(F)c1)C12CCC(COCc3ccc(F)cc3)(CC1)N2` [Compound 442, (S)-(4-{[(p-fluorophenyl)methoxy]methyl}-7-azabicyclo[[2.2.1]]hept-1-yl)(5-fluoro-3-pyridyl)methanol], the results for the Emax at 10 µM in experiment [1] and in experiment [2] were 25 to 50% and below 25%, respectively.

For the compound `O[C@H](c1cncc(F)c1)C12CCC(COCc3ccc(F)cc3)(CC1)N2` [Compound 443, (R)-(4-{[(p-fluorophenyl)methoxy]methyl}-7-azabicyclo[[2.2.1]]hept-1-yl)(5-fluoro-3-pyridyl)methanol], the figures for the Emax at 10 µM in experiment [1] and in experiment [2] were above 75% and 25 to 50%, respectively.

As to `O[C@@H](c1ccccc1F)C12CCC(CCc3cccnc3)(CC1)N2` [Compound 444, (R)-(o-fluorophenyl){4-[2-(3-pyridyl)ethyl]-7-azabicyclo[[2.2.1]]hept-1-yl}methanol], in experiment [1], the “Biological example 2 (GU)” value was “+++ (If a compound at 10 μM shows activity of more than 75% of that of isoproterenol at 10 μM, the activity is denoted with +++)”. This compound also showed an Emax at 10 µM in experiment [2] of 50 to 75%.

`O[C@@H](c1cccc(F)c1)C12CCC(CCc3cccnc3)(CC1)N2` [Compound 445, (S)-(m-fluorophenyl){4-[2-(3-pyridyl)ethyl]-7-azabicyclo[[2.2.1]]hept-1-yl}methanol]: the Emax at 10 µM in experiment [1] is above 75%. In addition, the “Biological example 3 (CAMP)” value in experiment [2] is given as “− (if it less than 25% it is denoted with −)”.

For the compound `O[C@@H](c1cccc(F)c1)C12CCC(CCc3cccnc3)(CC1)N2` [Compound 446, (R)-(m-fluorophenyl){4-[2-(3-pyridyl)ethyl]-7-azabicyclo[[2.2.1]]hept-1-yl}methanol], the “Biological example 2 (GU)” value in experiment [1] is listed as “+++ (If a compound at 10 μM shows activity of more than 75% of that of isoproterenol at 10 μM, the activity is denoted with +++)”. Also, the “Biological example 3 (CAMP)” value in experiment [2] is “++ (if it is between 75 and 50% it is denoted with ++)”.

`CC(C)(C[C@H]1CC[C@@H](NC(=O)C2CC2)CC1)NC[C@H](O)c1cccc(F)c1` [Compound 447]: the Emax at 10 µM in experiment [1] was above 75%; in experiment [2] it was below 25%.

As to `CC(C)(C[C@H]1CC[C@@H](NC(=O)C2CCC2)CC1)NC[C@H](O)c1cccc(F)c1` [Compound 448], the Emax at 10 µM in experiment [1] is 50 to 75%; in experiment [2], below 25%.

Regarding `CC(C)(C[C@H]1CC[C@@H](NC(=O)OC(C)(C)C)CC1)NC[C@H](O)c1cccc(C(F)(F)F)n1` [Compound 450, (1R,4s)-4-(2-{(S)-2-hydroxy-2-[6-(trifluoromethyl)-2-pyridyl]]ethylamino}-2-methylpropyl)cyclohexyl 2-methyl-2-propanecarbamate], the Emax at 10 µM in experiment [1] and in experiment [2] was below 25% each time.

On to `CC(=O)N[C@H]1CC[C@@H](CC(C)(C)NC[C@H](O)c2cccc(F)c2)CC1` [Compound 452], for which the Emax at 10 µM in experiment [1] was above 75%; in experiment [2], below 25%.

In the case of `CC(C)(C[C@H]1CC[C@@H](NS(C)(=O)=O)CC1)NC[C@H](O)c1cccc(F)c1` [Compound 453, (R)-2-{1,1-dimethyl-2-[(1s,4S)-4-(mesylamino)cyclohexyl]ethylamino}-1-(m-fluorophenyl)-1-ethanol], the Emax at 10 µM in experiment [1] is above 75%; in experiment [2], below 25%.

For `CC(C)(C[C@H]1CC[C@@H](NC(=O)C(C)(C)C)CC1)NC[C@H](O)c1cncc(F)c1` [Compound 455], the Emax at 10 µM in experiment [1] is 50 to 75%; in experiment [2] it was below 25%.

Take `CC(C)(C[C@H]1CC[C@@H](N)CC1)NC[C@H](O)c1cccc(F)c1` [Compound 456]: the results for the Emax at 10 µM in experiment [1] and in experiment [2] were above 75% and below 25%, respectively.

With `CC(C)(C[C@H]1CC[C@H](NS(=O)(=O)C(F)(F)F)CC1)NC[C@H](O)c1cccc(F)c1` [Compound 458], the Emax at 10 µM is above 75% in experiment [1] and below 25% in experiment [2].

As to `CC(C)(C[C@H]1CC[C@H](NC(=O)OC(C)(C)C)CC1)NC[C@H](O)c1cccc(C(F)(F)F)n1` [Compound 459], the Emax at 10 µM in experiment [1] was above 75%; in experiment [2] it was below 25%.

In the case of `CC(=O)N[C@H]1CC[C@H](CC(C)(C)NC[C@H](O)c2cccc(C(F)(F)F)n2)CC1` [Compound 460], the Emax at 10 µM in experiment [1] is 50 to 75%; in experiment [2] it was below 25%.

For `CC(C)(C[C@H]1CC[C@H](NS(C)(=O)=O)CC1)NC[C@H](O)c1cccc(C(F)(F)F)n1` [Compound 461, (S)-2-{1,1-dimethyl-2-[(1r,4S)-4-(mesylamino)cyclohexyl]ethylamino}-1-[6-(trifluoromethyl)-2-pyridyl]-1-ethanol], the Emax at 10 µM in experiment [1] was 25 to 50%; in experiment [2], below 25%.

On to `CC(=O)N[C@H]1CC[C@@H](CC(C)(C)NC[C@H](O)c2cccc(C(F)(F)F)n2)CC1` [Compound 462], for which the values for the Emax at 10 µM in experiment [1] and in experiment [2] were 25 to 50% and below 25%, respectively.

As for `CC(C)(C[C@H]1CC[C@@H](NS(C)(=O)=O)CC1)NC[C@H](O)c1cccc(C(F)(F)F)n1` [Compound 463], the Emax at 10 µM in experiment [1] was 50 to 75%; in experiment [2], below 25%.

Turning to `CN(C)S(=O)(=O)[C@H]1CC[C@H](CC(C)(C)NC[C@H](O)c2cccc(F)c2)CC1` [Compound 464], the Emax at 10 µM in experiment [1] and in experiment [2] was 25 to 50% each time.

Consider `CN(C)S(=O)(=O)[C@H]1CC[C@H](CC(C)(C)NC[C@H](O)c2cncc(F)c2)CC1` [Compound 465], for which the Emax at 10 µM is 50 to 75% in experiment [1] and 25 to 50% in experiment [2].

Turning to `CC(C)(C[C@H]1CC[C@@H](N)CC1)NC[C@H](O)c1cncc(F)c1` [Compound 466], the Emax at 10 µM in experiment [1] was 50 to 75%; in experiment [2], below 25%.

`CC(=O)N[C@H]1CC[C@@H](CC(C)(C)NC[C@H](O)c2cncc(F)c2)CC1` [Compound 467]: the Emax at 10 µM was above 75% in experiment [1] and below 25% in experiment [2].

For the compound `CC(C)(C[C@H]1CC[C@@H](NS(C)(=O)=O)CC1)NC[C@H](O)c1cncc(F)c1` [Compound 468, (R)-2-{1,1-dimethyl-2-[(1s,4S)-4-(mesylamino)cyclohexyl]ethylamino}-1-(5-fluoro-3-pyridyl)-1-ethanol], the Emax at 10 µM in experiment [1] is above 75%; in experiment [2] it was below 25%.

Turning to `CC(C)(C[C@H]1CC[C@@H](NC(=O)OC(C)(C)C)CC1)NC[C@H](O)c1cncc(F)c1` [Compound 469, (1S,4s)-4-{2-[(R)-2-(5-fluoro-3-pyridyl)-2-hydroxyethylamino]-2-methylpropyl}cyclohexy-2-methyl-2-propanecarbamate], the “Biological example 2 (GU)” value in experiment [1] is listed as “+++ (If a compound at 10 μM shows activity of more than 75% of that of isoproterenol at 10 μM, the activity is denoted with +++)”. Further, in experiment [2], the “Biological example 3 (CAMP)” value is “− (if it less than 25% it is denoted with −)”.

Turning to `CN(C)S(=O)(=O)[C@H]1CC[C@@H](CC(C)(C)NC[C@H](O)c2cccc(F)c2)CC1` [Compound 470], the results for the Emax at 10 µM in experiment [1] and in experiment [2] were above 75% and 25 to 50%, respectively.

Take `CN(C)S(=O)(=O)[C@H]1CC[C@@H](CC(C)(C)NC[C@H](O)c2cncc(F)c2)CC1` [Compound 471]: the Emax at 10 µM was above 75% in experiment [1] and 50 to 75% in experiment [2].

On to `CS(=O)(=O)N(Cc1ccccc1)c1ccc(CC23CCC([C@@H](O)c4cccc(F)c4)(CC2)N3)cc1` [Compound 472, (S)-[4-({p-[(benzyl)-N-mesylamino]phenyl}methyl)-7-azabicyclo[[2.2.1]]hept-1-yl](m-fluorophenyl)methanol], for which the values for the Emax at 10 µM in experiment [1] and in experiment [2] were 25 to 50% and below 25%, respectively.

Take `CS(=O)(=O)N(Cc1ccccc1)c1ccc(CC23CCC([C@H](O)c4cccc(F)c4)(CC2)N3)cc1` [Compound 473]: the results for the Emax at 10 µM in experiment [1] and in experiment [2] were 25 to 50% and below 25%, respectively.
